Experimental data: patent US8304539B2, “Fused heteroaryl modulators of glucocorticoid receptor, AP-1, and/or NF-κB activity and use thereof” (Bristol-Myers Squibb Company, priority 2008, dated 2012)

Tested on: AP-1
Experiment: Cellular transrepression assay (AP-1 luciferase reporter in A549 cells, PMA activated)
Format: cell-based
Settings: 7 h, 10 ng/ml PMA; for EC50: read-out: AP-1 (EC50, nM) (measured in cellular transrepression assay); for Emax: read-out: AP-1 Max % inhibition (measured in cellular transrepression assay)
Description: Cellular Transrepressional Assay
To measure the ability of test molecules to inhibit AP-1 induced transcriptional activity we utilized an A549 cell which was stably transfected with a plasmid containing 7×AP-1 DNA binding sites (pAP-1-Luc plasmid, Stratagene Co. La Jolla, Calif.) followed by the gene for luciferase. Cells were activated with 10 ng/ml of phorbol myristic acid (PMA) plus or minus test molecules for 7 hours. After 7 hours a luciferase reagent was added to measure luciferase enzymatic activity in the cell. After a 10 minute incubation of luciferase reagent with cells, luminescence was measured in a TopCount luminescence counter. Repression of AP-1 activity was calculated as the percentage decrease in the signal induced by PMA alone. Test molecules were analyzed in the concentration range from 0.1 nM to 40 μM. EC50s were determined by using standard curve fitting methods such as Excel fit (Microsoft Co.). An EC50 is the test molecule concentration at which there is a 50% repression of the maximal inhibition of transcription, i.e. a 50% reduction of AP-1 activity.

SMILES	EC50	Emax
CCN(C)C(=O)c1ccc(-c2ccc3c(n2)Oc2nc(C)ccc2[C@@H]3C(C)(C)C(=O)Nc2nnc(C(=O)NC(C)C)s2)cc1 [Example 86]	183 nM	61.6%
Cc1ccc2c(n1)Oc1nc(-c3ccc([S+](C)[O-])cc3)ccc1C2C(C)(C)C(=O)Nc1nncs1 [Example 36, (4-((5S)-5-(1,1-dimethyl-2-oxo-2-(1,3,4-thiadiazol-2-ylamino)ethyl)-8-methyl-5H-pyrido[3′,2′:5,6]pyrano[2,3-b]pyridin-2-yl)phenyl)(methyl)sulfoniumolate]	526 nM	26.9%
CCN(C)C(=O)c1ccc(-c2ccc3c(n2)Oc2nc(C)ccc2[C@@H]3C(C)(C)C(=O)Nc2nnc(C(=O)NC)s2)cc1 [Example 46]	759 nM	36%
Cc1ccc2c(n1)Oc1nc(-c3ccc(C(=O)N4CCCC4)cc3)ccc1C2C(C)(C)C(=O)Nc1nncs1 (centres unmarked) [Example 16]	541 nM	40.2%
CCN(C)C(=O)c1ccc(-c2ccc3c(n2)Oc2nc(C)ccc2[C@@H]3C(C)(C)C(=O)Nc2nnc(C(=O)N3CCOCC3)s2)cc1 [Example 50]	908 nM	35.4%
CCN(C)C(=O)c1ccc(-c2ccc3c(n2)Oc2nc(C)ccc2[C@@H]3C(C)(C)C(=O)Nc2nncs2)cc1F [Example 21]	166 nM	49.7%
CN(C)C(=O)c1ccc(-c2ccc3c(n2)Oc2nc(N(C)C)ccc2C3C(C)(C)C(=O)Nc2nncs2)cc1F (centres unmarked) [Example 73, 4-(8-(dimethylamino)-5-(1,1-dimethyl-2-oxo-2-(1,3,4-thiadiazol-2-ylamino)ethyl)-5H-pyrido[3′,2′:5,6]pyrano[2,3-b]pyridin-2-yl)-2-fluoro-N,N-dimethylbenzamide]	194 nM	43.4%
CC[S+]([O-])c1ccc(-c2ccc3c(n2)Oc2nc(C)ccc2C3C(C)(C)C(=O)Nc2nncs2)cc1 (stereo in doubt) [Example 81, 2-((5S)-2-(4-(ethylsulfinyl)phenyl)-8-methyl-5H-pyrido[3′,2′:5,6]pyrano[2,3-b]pyridin-5-yl)-2-methyl-N-1,3,4-thiadiazol-2-ylpropanamide]	368 nM	28.7%
CN(C)C(=O)c1ccc(-c2ccc3c(n2)Oc2nc(Cl)ccc2C3C(C)(C)C(=O)Nc2nnc(C(=O)NC3CC3)s2)cc1 (centres unmarked) [Example 62]	352 nM	59.5%

Stronger by EC50, values ahead:

EC50	SMILES	Emax
41.6 nM	Cc1ccc2c(n1)Oc1nc(-c3ccc(OC(C)C)cc3)ccc1[C@H]2C(C)(C)C(=O)Nc1nncs1 [Example 30]	34.6%
68.5 nM	Cc1nsc(NC(=O)C(C)(C)C2c3ccc(Cl)nc3Oc3nc(-c4ccc(C(=O)N(C)C)cc4)ccc32)n1 (centres unmarked) [Example 57]	31.4%
14.6 nM	CCN(C)C(=O)c1ccc(-c2ccc3c(n2)Oc2nc(C)ccc2[C@@H]3C(C)(C)C(=O)Nc2nccs2)cc1 [Example 34]	64.9%
56.9 nM	Cc1ccc2c(n1)Oc1nc(-c3ccc(C(=O)N4CCOCC4)cc3)ccc1[C@H]2C(C)(C)C(=O)Nc1nnc(C(=O)NC2CCOCC2)s1 [Example 88, 5-((2-methyl-2-((5S)-2-methyl-8-(4-(4-morpholinylcarbonyl)phenyl)-5H-pyrano[2,3-b:6,5-b′]dipyridin-5-yl)propanoyl)amino)-N-(tetrahydro-2H-pyran-4-yl)-1,3,4-thiadiazole-2-carboxamide]	32.9%
52 nM	CCN(C)C(=O)c1ccc(-c2ccc3c(n2)Oc2nc(C)ccc2C3C(C)(C)C(=O)Nc2nncs2)cc1F (centres unmarked) [Example 18]	47.8%
18 nM	CN(C)c1ccc2c(n1)Oc1nc(-c3ccc(C(=O)N4CCOCC4)cc3)ccc1C2C(C)(C)C(=O)Nc1nncs1 (centres unmarked) [Example 72]	48.7%
53 nM	CN(C)C(=O)c1ccc(-c2ccc3c(n2)Oc2nc(N(C)C)ccc2C3C(C)(C)C(=O)Nc2nncs2)cc1 (centres unmarked) [Example 67, 4-(8-(dimethylamino)-5-(1,1-dimethyl-2-oxo-2-(1,3,4-thiadiazol-2-ylamino)ethyl)-5H-pyrido[3′,2′:5,6]pyrano[2,3-b]pyridin-2-yl)-N,N-dimethylbenzamide]	57.9%
